# d = 2'-deoxy (DNA); r = 2'-OH (RNA)
# System: LHPP gene
# Assay: High-throughput screening of saRNAs targeting LHPP promoter: LHPP mRNA by one-step RT-qPCR in Huh7 cells
# Type: cell-based, human
# Settings: 10 nM saRNA, 72 hours, relative to control (Mock)
# Protocol: Human liver cancer cell line Huh7 was cultured in DMEM medium (Gibco), containing 10% of calf serum (Sigma-Aldrich) and 1% of penicillin/streptomycin (Gibco). The cells were cultured at 5% CO2 and 37° C. According to the instructions provided by the manufacturer, RNAiMax (Invitrogen, Carlsbad, Calif.) was used to transfect small activating RNAs at a concentration of 10 nM (unless otherwise specified).
# At the end of transfection, the media were discarded, and each well was washed with 150 μL of PBS once. After discarding the PBS, 50 μL of cell lysis buffer (Takara) was added to each well and incubated at room temperature for 5 min. 1 μL of the resulted cell lysis was taken from each well and analyzed by qPCR on an ABI 7500 fast real-time PCR system (Applied Biosystems) using a one-step TB Green™ PrimeScrip™ RT-PCR kit II (Takara, RR086A) Each transfection sample was repeatedly amplified in 3 replicate wells.
# Reaction conditions were as follows: reverse transcription reaction (stage 1): 5 min at 42° C., 10 s at 95° C.; PCR reaction (stage 2): 5 s at 95° C., 20 s at 60° C., 45 cycles of amplification. HPRT1 and TBP were used as internal reference genes. PCR primers used for amplifying LHPP, HPRT1 and TBP genes are shown in Table 2, wherein LHPP was amplified using the LHPP F1/R1 primer pair.
# To calculate the relative expression level (Erel) of LHPP (target gene) in an saRNA-transfected sample relative to control treatment (Mock), the Ct values of the target gene and the two internal reference genes were substituted into formula 1
# Erel=2^(CtT^m^-CtT^s^)/((2^(CtR1^m^-CtR1^s^)*2^(CtR2^m^-CtR2^s^))^(1/2))
# wherein CtTm was the Ct value of the target gene from the control (Mock) sample; CtTs was the Ct value of the target gene from the saRNA-treated sample; CtR1m was the Ct value of the internal reference gene 1 from the control (Mock) sample; CtR1s was the Ct value of the internal reference gene 1 from the saRNA-treated sample; CtR2m was the Ct value of the internal reference gene 2 from the control (Mock) sample; and CtR2s was the Ct value of the internal reference gene 2 from the saRNA-treated sample.
# In order to obtain saRNAs capable of activating LHPP transcription, Huh7 cells were transfected with each of the aforementioned 290 saRNAs with a transfection concentration of 10 nM, and 72 hours later, according to the same method as described above, the cells were lysed and analyzed by one-step RT-qPCR to obtain the relative (compared with the control (Mock)) expression level of LHPP gene for each saRNA-treated sample. […] The observed maximum activation and maximum inhibition is 3.46 fold and 0.49 fold, respectively, saRNAs with activating activity are referred to as activating saRNAs, and the saRNAs with inhibiting activity are referred to as inhibiting saRNAs.
Substance,Fold of changes in relative LHPP mRNA expression level [fold],Fold of changes in relative LHPP mRNA expression level (log2)
"RAG7-34: saRNA duplex; sense GUUUGCACCCGGUCUUCUUTT (SEQ ID NO: 26), antisense AAGAAGACCGGGUGCAAACTT (SEQ ID NO: 190) (sugars from the 5' end r19 d2, backbone not given here)",1.51,0.59
"RAG7-846: saRNA duplex; sense AAGGUUCCGAGGGGCCAUUTT (SEQ ID NO: 11), antisense AAUGGCCCCUCGGAACCUUTT (SEQ ID NO: 175) (sugars from the 5' end r19 d2, backbone not given here)",1.68,0.75
"RAG7-143: saRNA duplex; sense UGCUUUUCCUGCUCUUUGUTT (SEQ ID NO: 102), antisense ACAAAGAGCAGGAAAAGCATT (SEQ ID NO: 266) (sugars from the 5' end r19 d2, backbone not given here)",1.21,0.28
"RAG7-706: saRNA duplex; sense UCUUCUCAGCCCAGGUCCUTT (SEQ ID NO: 15), antisense AGGACCUGGGCUGAGAAGATT (SEQ ID NO: 179) (sugars from the 5' end r19 d2, backbone not given here)",1.63,0.70
"RAG7-899: saRNA duplex; sense AAAGCUAUGUUGGACCAGATT (SEQ ID NO: 84), antisense UCUGGUCCAACAUAGCUUUTT (SEQ ID NO: 248) (sugars from the 5' end r19 d2, backbone not given here)",1.26,0.33
"RAG7-890: saRNA duplex; sense UUGGACCAGAAGUAAAGUGTT (SEQ ID NO: 76), antisense CACUUUACUUCUGGUCCAATT (SEQ ID NO: 240) (sugars from the 5' end r19 d2, backbone not given here)",1.28,0.36
"RAG7-29: saRNA duplex; sense CACCCGGUCUUCUUGCCCUTT (SEQ ID NO: 79), antisense AGGGCAAGAAGACCGGGUGTT (SEQ ID NO: 243) (sugars from the 5' end r19 d2, backbone not given here)",1.28,0.35
"RAG7-848: saRNA duplex; sense GAAAGGUUCCGAGGGGCCATT (SEQ ID NO: 87), antisense UGGCCCCUCGGAACCUUUCTT (SEQ ID NO: 251) (sugars from the 5' end r19 d2, backbone not given here)",1.25,0.32
"RAG7-109: saRNA duplex; sense GAAGAAAGCUUCCGAAAAGTT (SEQ ID NO: 90), antisense CUUUUCGGAAGCUUUCUUCTT (SEQ ID NO: 254) (sugars from the 5' end r19 d2, backbone not given here)",1.24,0.31
"RAG7-844: saRNA duplex; sense GGUUCCGAGGGGCCAUUGATT (SEQ ID NO: 129), antisense UCAAUGGCCCCUCGGAACCTT (SEQ ID NO: 293) (sugars from the 5' end r19 d2, backbone not given here)",1.17,0.22
"RAG7-187: saRNA duplex; sense UCUUGUCUCAAUUUGCCUUTT (SEQ ID NO: 123), antisense AAGGCAAAUUGAGACAAGATT (SEQ ID NO: 287) (sugars from the 5' end r19 d2, backbone not given here)",1.17,0.22
"RAG7-698: saRNA duplex; sense GCCCAGGUCCUAUGCAUCCTT (SEQ ID NO: 118), antisense GGAUGCAUAGGACCUGGGCTT (SEQ ID NO: 282) (sugars from the 5' end r19 d2, backbone not given here)",1.18,0.24
"RAG7-184: saRNA duplex; sense UGUCUCAAUUUGCCUUUGATT (SEQ ID NO: 16), antisense UCAAAGGCAAAUUGAGACATT (SEQ ID NO: 180) (sugars from the 5' end r19 d2, backbone not given here)",1.59,0.67
"RAG7-702: saRNA duplex; sense CUCAGCCCAGGUCCUAUGCTT (SEQ ID NO: 140), antisense GCAUAGGACCUGGGCUGAGTT (SEQ ID NO: 304) (sugars from the 5' end r19 d2, backbone not given here)",1.14,0.19
"RAG7-142: saRNA duplex; sense GCUUUUCCUGCUCUUUGUCTT (SEQ ID NO: 164), antisense GACAAAGAGCAGGAAAAGCTT (SEQ ID NO: 328) (sugars from the 5' end r19 d2, backbone not given here)",1.10,0.14
"RAG7-94: saRNA duplex; sense AAAGGACACCGUUUCAGGGTT (SEQ ID NO: 13), antisense CCCUGAAACGGUGUCCUUUTT (SEQ ID NO: 177) (sugars from the 5' end r19 d2, backbone not given here)",1.64,0.72
"RAG7-721: saRNA duplex; sense GUGAUAGUCCCGUUUUCUUTT (SEQ ID NO: 133), antisense AAGAAAACGGGACUAUCACTT (SEQ ID NO: 297) (sugars from the 5' end r19 d2, backbone not given here)",1.16,0.21
"RAG7-132: saRNA duplex; sense CUCUUUGUCCGCUGAUCUCTT (SEQ ID NO: 4), antisense GAGAUCAGCGGACAAAGAGTT (SEQ ID NO: 168) (sugars from the 5' end r19 d2, backbone not given here)",1.86,0.90

# Source: patent publication US20220096516A1, “OLIGONUCLEOTIDE MOLECULE AND APPLICATION THEREOF IN TUMOR THERAPY” (Ractigen Therapeutics, priority 2019, published 2022)
